# Measured values: patent publication US6559101B2, “N- (5, 7-dimethoxy [1, 2, 4] triazolo [1, 5-a] pyrimidin-2-yl) arylsulfonamide compounds and their use as herbicides” (Dow AgroSciences LLC, priority 2000, dated 2003)
# How the values were obtained:
# Assay type in all cases: in vivo
# [1] = test system: Rox orange sorghum (Sorghum bicolor); experiment: Postemergence herbicidal activity; settings: scored after 2 weeks, 0 no injury, 100 complete kill
# Method: (§1) Seeds of the desired test plant species were planted in Grace-Sierra MetroMix® 306 planting mixture, which typically has a pH of 6.0 to 6.8 and an organic matter content of about 30 percent, in plastic pots with a surface area of 64 square centimeters. When required to ensure good germination and healthy plants, a fungicide treatment and/or other chemical or physical treatment was applied. The plants were grown for 7-21 days in a greenhouse with an approximately 15 hr photoperiod which was maintained at about 23-29° C. during the day and 22-28° C. during the night. Nutrients and water were added on a regular basis and supplemental lighting was provided with overhead metal halide 1000 Watt lamps as necessary. The plants were employed for testing when they reached the first or second true leaf stage. A weighed amount of each test compound, determined by the highest rate to be tested, was placed in a 20 mL glass vial and was dissolved in 4 mL of a 97:3 v/v (volume/volume) mixture of acetone and dimethyl sulfoxide to obtain concentrated stock solutions. […] The concentrated stock solutions obtained were diluted with an aqueous mixture containing acetone, water, iso-propyl alcohol, dimethyl sulfoxide, Atplus 411F crop oil concentrate, and Triton X-155 surfactant (methylenebisdiamyl phenoxy polyethoxy ethanol) in a 48.5:39:10:1.5:1.0:0.02 v/v ratio to obtain spray solutions of known concentration. The solutions containing the highest concentration to be tested were prepared by diluting 2 mL aliquots of the stock solution with 13 mL of the mixture and lower concentrations were prepared by dilution of appropriate smaller portions of the stock solution. Approximately 1.5 mL aliquots of each solution of known concentration were sprayed evenly onto each of the test plant pots using a Devilbiss atomizer driven by compressed air pressure of 2 to 4 psi (140 to 280 kiloPascals) to obtain thorough coverage of each plant. Control plants were sprayed in the same manner with the aqueous mixture. In this test an application rate of 1 ppm results in the application of approximately 1 g/ha. The treated plants and control plants were placed in a greenhouse as described above and watered by sub-irrigation to prevent wash-off of the test compounds. After 2 weeks the condition of the test plants as compared with that of the untreated plants was determined visually and scored on a scale of 0 to 100 percent where 0 corresponds to no injury and 100 corresponds to complete kill.
# [2] = test system: blackgrass (Alopecurus myosuroides); experiment: Postemergence herbicidal activity; settings: scored after 2 weeks, 0 no injury, 100 complete kill
# Method: as §1
# [3] = test system: chickweed (Stellaria media); experiment: Postemergence herbicidal activity; settings: scored after 2 weeks, 0 no injury, 100 complete kill
# Method: as §1
# [4] = test system: cocklebur (Xanthium strumarium); experiment: Postemergence herbicidal activity; settings: scored after 2 weeks, 0 no injury, 100 complete kill
# Method: as §1
# [5] = test system: giant foxtail (Setaria faberi); experiment: Postemergence herbicidal activity; settings: scored after 2 weeks, 0 no injury, 100 complete kill
# Method: as §1
# [6] = test system: lambsquarters (Chenopodium album); experiment: Postemergence herbicidal activity; settings: scored after 2 weeks, 0 no injury, 100 complete kill
# Method: as §1
# [7] = test system: morningglory (Ipomoea hederacea); experiment: Postemergence herbicidal activity; settings: scored after 2 weeks, 0 no injury, 100 complete kill
# Method: as §1
# [8] = test system: pigweed (Amaranthus retroflexus); experiment: Postemergence herbicidal activity; settings: scored after 2 weeks, 0 no injury, 100 complete kill
# Method: as §1
# [9] = test system: velvetleaf (Abutilion theophrasti); experiment: Postemergence herbicidal activity; settings: scored after 2 weeks, 0 no injury, 100 complete kill
# Method: as §1
# viola (Viola tricolor) = experiment: Postemergence herbicidal activity; settings: scored after 2 weeks, 0 no injury, 100 complete kill
# Method: as §1
# [10] = test system: wild buckwheat (Polygonum convolvulus); experiment: Postemergence herbicidal activity; settings: scored after 2 weeks, 0 no injury, 100 complete kill
# Method: as §1
# wild oats (Avena fatua) [11] = experiment: Postemergence herbicidal activity; settings: scored after 2 weeks, 0 no injury, 100 complete kill
# Method: as §1
# [12] = test system: Rox orange sorghum (Sorghum bicolor); experiment: Preemergence herbicidal activity; settings: scored after 3 weeks, 0 no injury, 100 complete kill or no germination
# Method: (§2) The soil matrix was contained in plastic pots with a surface area of 161 square centimeters. When required to ensure good germination and healthy plants, a fungicide treatment and/or other chemical or physical treatment was applied. A weighed amount, determined by the highest rate to be tested, of each test compound was placed in a 20 mL glass vial and was dissolved in 8 mL of a 97:3 v/v (volume/volume) mixture of acetone and dimethyl sulfoxide to obtain concentrated stock solutions. […] The stock solutions obtained were diluted with a 99.9:0.1 mixture of water and Tween® 155 surfactant (ethoxylated sorbitan fatty acid ester) to obtain application solutions of known concentration. The solutions containing the highest concentration to be tested were prepared by diluting 4 mL aliquots of the stock solution with 8.5 mL of the mixture and lower concentrations were prepared by dilution of appropriate smaller portions of the stock solution. A 2.5 mL aliquot of each solution of known concentration was sprayed evenly onto the soil of each seeded pot using a Cornwall 5.0 mL glass syringe fitted with a TeeJet TN-3 hollow cone nozzle to obtain thorough coverage of the soil in each pot. Control pots were sprayed in the same manner with the aqueous mixture. A highest application rate of 4.48 kg/ha is achieved when 50 mg of test compound is employed. The treated pots and control pots were placed in a greenhouse with an approximately 15 hr photoperiod which was maintained at about 23-29° C. during the day and 22-28° C. during the night. Nutrients and water were added on a regular basis and supplemental lighting was provided with overhead metal halide 1000 Watt lamps as necessary. The water was added by top-irrigation. After 3 weeks the condition of the test plants that germinated and grew as compared with that of the untreated plants that germinated and grew was determined visually and scored on a scale of 0 to 100 percent where 0 corresponds to no injury and 100 corresponds to complete kill or no germination.
# [13] = test system: barnyardgrass (Echinochloa crus-galli); experiment: Preemergence herbicidal activity; settings: scored after 3 weeks, 0 no injury, 100 complete kill or no germination
# Method: as §2
# [14] = test system: blackgrass (Alopecurus myosuroides); experiment: Preemergence herbicidal activity; settings: scored after 3 weeks, 0 no injury, 100 complete kill or no germination
# Method: as §2
# [15] = test system: cocklebur (Xanthium strumarium); experiment: Preemergence herbicidal activity; settings: scored after 3 weeks, 0 no injury, 100 complete kill or no germination
# Method: as §2
# [16] = test system: crabgrass (Digitaria sanguinalis); experiment: Preemergence herbicidal activity; settings: scored after 3 weeks, 0 no injury, 100 complete kill or no germination
# Method: as §2
# [17] = test system: giant foxtail (Setaria faberi); experiment: Preemergence herbicidal activity; settings: scored after 3 weeks, 0 no injury, 100 complete kill or no germination
# Method: as §2
# [18] = test system: morningglory (Ipomoea hederacea); experiment: Preemergence herbicidal activity; settings: scored after 3 weeks, 0 no injury, 100 complete kill or no germination
# Method: as §2
# [19] = test system: pigweed (Amaranthus retroflexus); experiment: Preemergence herbicidal activity; settings: scored after 3 weeks, 0 no injury, 100 complete kill or no germination
# Method: as §2
# [20] = test system: velvetleaf (Abutilion theophrasti); experiment: Preemergence herbicidal activity; settings: scored after 3 weeks, 0 no injury, 100 complete kill or no germination
# Method: as §2
# wild oats (Avena fatua) [21] = experiment: Preemergence herbicidal activity; settings: scored after 3 weeks, 0 no injury, 100 complete kill or no germination
# Method: as §2
# [22] = test system: wild poinsettia (Euphorbia heterophylla); experiment: Preemergence herbicidal activity; settings: scored after 3 weeks, 0 no injury, 100 complete kill or no germination
# Method: as §2
smiles,measurement,setting,value
COc1cc(OC)n2nc(NS(=O)(=O)c3cc(C)ccc3OC)nc2n1 [Compound 6],Postemergence herbicidal activity SORBI,[1]; 31.3 ppm,95%
same,Postemergence herbicidal activity ALOMY,[2]; 31.3 ppm,90%
same,Postemergence herbicidal activity STEME,[3]; 31.3 ppm,98%
same,Postemergence herbicidal activity XANST,[4]; 31.3 ppm,95%
same,Postemergence herbicidal activity SETFA,[5]; 31.3 ppm,95%
same,Postemergence herbicidal activity CHEAL,[6]; 31.3 ppm,95%
same,Postemergence herbicidal activity IPOHE,[7]; 31.3 ppm,70%
same,Postemergence herbicidal activity AMARE,[8]; 31.3 ppm,100%
same,Postemergence herbicidal activity ABUTH,[9]; 31.3 ppm,95%
same,Postemergence herbicidal activity VIOTR,viola (Viola tricolor); 31.3 ppm,90%
same,Postemergence herbicidal activity POLCO,[10]; 31.3 ppm,98%
same,Postemergence herbicidal activity AVEFA,wild oats (Avena fatua) [11]; 31.3 ppm,95%
same,Preemergence herbicidal activity SORBI,[12]; 35 g/Ha,95%
same,Preemergence herbicidal activity ECHCG,[13]; 35 g/Ha,90%
same,Preemergence herbicidal activity ALOMY,[14]; 35 g/Ha,100%
same,Preemergence herbicidal activity XANST,[15]; 35 g/Ha,70%
same,Preemergence herbicidal activity DIGSA,[16]; 35 g/Ha,100%
same,Preemergence herbicidal activity SETFA,[17]; 35 g/Ha,98%
same,Preemergence herbicidal activity IPOHE,[18]; 35 g/Ha,50%
same,Preemergence herbicidal activity AMARE,[19]; 35 g/Ha,98%
same,Preemergence herbicidal activity ABUTH,[20]; 35 g/Ha,98%
same,Preemergence herbicidal activity AVEFA,wild oats (Avena fatua) [21]; 35 g/Ha,90%
same,Preemergence herbicidal activity EPHHL,[22]; 35 g/Ha,80%
"COc1cc(OC)n2nc(NS(=O)(=O)c3c(OCCF)cccc3C(F)(F)F)nc2n1 [Compound 3, N-(5,7-dimethoxy[1,2,4]triazolo[1,5-a]pyrimidin-2-yl)-2-(2-fluoroethoxy)-6-(trifluoromethyl)benzenesulfonamide]",Postemergence herbicidal activity SORBI,[1]; 3.9 ppm,70%
same,Postemergence herbicidal activity ALOMY,[2]; 3.9 ppm,95%
same,Postemergence herbicidal activity STEME,[3]; 3.9 ppm,95%
same,Postemergence herbicidal activity XANST,[4]; 3.9 ppm,75%
same,Postemergence herbicidal activity SETFA,[5]; 3.9 ppm,98%
same,Postemergence herbicidal activity CHEAL,[6]; 3.9 ppm,95%
same,Postemergence herbicidal activity AMARE,[8]; 3.9 ppm,98%
same,Postemergence herbicidal activity ABUTH,[9]; 3.9 ppm,80%
same,Postemergence herbicidal activity VIOTR,viola (Viola tricolor); 3.9 ppm,90%
same,Postemergence herbicidal activity POLCO,[10]; 3.9 ppm,98%
same,Postemergence herbicidal activity AVEFA,wild oats (Avena fatua) [11]; 3.9 ppm,70%
same,Preemergence herbicidal activity SORBI,[12]; 17.5 g/Ha,100%
same,Preemergence herbicidal activity ECHCG,[13]; 17.5 g/Ha,100%
same,Preemergence herbicidal activity ALOMY,[14]; 17.5 g/Ha,100%
same,Preemergence herbicidal activity XANST,[15]; 17.5 g/Ha,100%
same,Preemergence herbicidal activity DIGSA,[16]; 17.5 g/Ha,100%
same,Preemergence herbicidal activity SETFA,[17]; 17.5 g/Ha,100%
same,Preemergence herbicidal activity IPOHE,[18]; 17.5 g/Ha,98%
same,Preemergence herbicidal activity AMARE,[19]; 17.5 g/Ha,100%
same,Preemergence herbicidal activity ABUTH,[20]; 17.5 g/Ha,100%
same,Preemergence herbicidal activity AVEFA,wild oats (Avena fatua) [21]; 17.5 g/Ha,95%
same,Preemergence herbicidal activity EPHHL,[22]; 17.5 g/Ha,90%
COC(=O)c1cccc(OC)c1S(=O)(=O)Nc1nc2nc(OC)cc(OC)n2n1 [Compound 7],Postemergence herbicidal activity SORBI,[1]; 62.5 ppm,80%
same,Postemergence herbicidal activity ALOMY,[2]; 62.5 ppm,95%
same,Postemergence herbicidal activity STEME,[3]; 62.5 ppm,90%
same,Postemergence herbicidal activity XANST,[4]; 62.5 ppm,40%
same,Postemergence herbicidal activity SETFA,[5]; 62.5 ppm,95%
same,Postemergence herbicidal activity IPOHE,[7]; 62.5 ppm,80%
same,Postemergence herbicidal activity AMARE,[8]; 62.5 ppm,95%
same,Postemergence herbicidal activity ABUTH,[9]; 62.5 ppm,70%
same,Postemergence herbicidal activity VIOTR,viola (Viola tricolor); 62.5 ppm,80%
same,Postemergence herbicidal activity POLCO,[10]; 62.5 ppm,85%
same,Postemergence herbicidal activity AVEFA,wild oats (Avena fatua) [11]; 62.5 ppm,90%
same,Preemergence herbicidal activity SORBI,[12]; 70 g/Ha,95%
same,Preemergence herbicidal activity ECHCG,[13]; 70 g/Ha,20%
same,Preemergence herbicidal activity ALOMY,[14]; 70 g/Ha,100%
same,Preemergence herbicidal activity XANST,[15]; 70 g/Ha,0%
same,Preemergence herbicidal activity DIGSA,[16]; 70 g/Ha,40%
same,Preemergence herbicidal activity SETFA,[17]; 70 g/Ha,100%
same,Preemergence herbicidal activity IPOHE,[18]; 70 g/Ha,10%
same,Preemergence herbicidal activity AMARE,[19]; 70 g/Ha,100%
same,Preemergence herbicidal activity ABUTH,[20]; 70 g/Ha,0%
same,Preemergence herbicidal activity AVEFA,wild oats (Avena fatua) [21]; 70 g/Ha,70%
same,Preemergence herbicidal activity EPHHL,[22]; 70 g/Ha,20%
